How the values were obtained:
[1] = test system: axonal protein synthesis in DRG neurons; assay: Puromycinylation assay of axonal protein synthesis; format: cell-based, rat; settings: compared to untreated and 168-189 peptide-treated cultures
Experimental: Puromycinylation assay. To visualize newly synthesized proteins in cultured neurons, the inventors used the Click-iT® Plus OPP Protein Synthesis Assay Kit per manufacturer's instructions (Invitrogen/Life Technologies). Briefly, 3 DIV cultures were incubated with 20 μM0-propargyl-puromycin (OPP) for 30 min at 37° C. OPP labeled proteins were detected by crosslinking with Alexa Fluor-594 picolyl azide molecule. Coverslips were then mounted with Prolong Gold Antifade (Invitrogen) and imaged with Leica DMI6000 epifluorescent microscope as above. ImageJ was used to quantify the Puromycinylation signals in distal axons and cell bodies.

[2] = test system: G3BP1 and pTDP-43 particles in C9ORF72 iPS-MN axons; assay: G3BP1/pTDP-43 RNP condensates in iPS-MN axons; format: cell-based, human; settings: peptide exclusively in the axonal compartment of the MFC
Description: Formation of G3BP1-positive RNP condensates is strongly associated with repressed RNA translation, see Sahoo, P. K. et al. A Ca^2+ dependent switch activates axonal casein kinase 2α translation and drives G3BP1 granule disassembly for axon regeneration. Curr. Biol. 30, 4882-4895.e6 (2020), and altered mRNA transport, see Liao, Y. C. et al. RNA granules hitchhike on lysosomes for long-distance transport, using Annexin All as a molecular tether. Cell 179, 147-164.e20 (2019), leading to reduced protein synthesis, see Sahoo, P. K. et al. Axonal G3BP1 stress granule protein limits axonal mRNA translation and nerve regeneration. Nat. Commun. 9, 1-14 (2018). […] By quantifying OPP puncta density within in vitro NMJs, we identified robust protein synthesis within control co-cultures, while protein synthesis in TDPΔNLS NMJs was severely impaired (FIG. 19 3k-l). […] Unpaired-t-test, two-sided ****p<0.0001. c Images and d-f quantification of NFH, pTDP-43 and G3BP1 and their colocalization in C9ORF72 iPS-MN axons either treated or not with G3BP1 peptide. Quantifications of G3BP1 particle density (d), G3BP1-pTDP-43 coloc-particle density (e) and G3BP1-pTDP-43 coloc-particle size (f) from C9ORF72 and control iPS-MN axons, either treated or not with G3BP1 peptide. […] One-way-ANOVA with Holm-Sidak correction. […], ****p<0.0001. i Images and j quantification of OPP puncta density in control or ΔNLS MN axons. […]

YGNKKNNNQNNN-VVEPEPEPEPEPEPEPVSE [G3BP1 190-208 peptide]
puromycin incorporation in DRG axons (axonal protein synthesis) [1]: significantly increased puromycin incorporation | puromycin incorporation in DRG axons (axonal protein synthesis) ([1]; listed as 190-208 peptide): significant increase in axonal protein synthesis | G3BP1/pTDP43 particle size [2]: Reduce G3BP1/pTDP43 particle size | pTDP43 RNP-condensate density [2]: Reduce

Reference: US20230190887A1, “TARGETING G3BP AGGREGATION TO PREVENT NEURODEGENERATION” (priority 2019, published 2023)
